Where two headings read alike, the source gives them in different places.

In one experiment the test system is 786-O cells. In words: VEGF ELISA assay. Type of experiment: cell-based. To be noted: Homo sapiens, 786-0, VEGF in culture medium. The protocol: Each concentration was plated in duplicate. About 20 hours later, medium was removed by suction and each well was supplied with 180 μL of growth medium. About 20 μl freshly-made 10× compound stocks were added to each well. […] The EC50 was calculated by GraphPad Prism using the dose-response-inhibition (four parameter) equation. The cell-seeded plate was then subjected to CellTiter-Glo luminescence cell viability assay (Promega) by adding 50 μL of Celltiter Glo reagent into each well and shaking the plate for 8 minutes at 550 rpm (Thermomixer R, Eppendorf) then the luminescence signal immediately read in a plate reader (3 second delay, 0.5 second/well integration time, Synergy 2 multi Detection Microplate reader).
For orientation: An ELISA detects its analyte on a solid surface through an enzyme-linked reagent.

The test system of the next experiment is 786-O-Hif-Luc cells. In words: Luciferase assay (HIF responsive element reporter). As to conditions: 24 h.
The target of experiment [1] is T1, HIF-2α HIS TAG-PASB Domain (Homo sapiens, UniProt Q99814).
T1 construct: 100 nM HIF-2α HIS TAG-PASB Domain
T1 sequence (Q99814 240-350 limits assumed): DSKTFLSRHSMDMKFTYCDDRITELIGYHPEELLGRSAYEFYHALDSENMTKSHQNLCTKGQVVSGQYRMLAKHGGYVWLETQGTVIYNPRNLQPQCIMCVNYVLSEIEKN
In words: HIF-2α Scintillation Proximity Assay (SPA). Type of experiment: binding. The method, then:
The total assay volume was about 100 μL in the following configuration: 2 μL compound in 100% DMSO, 88 μL buffer with protein and probe and 10 μL of SPA beads. […] The percent inhibition was determined and IC50 values were calculated using the Dotmatics system based on the following equation: % inhibition=[(high control−sample)/(high control−low control)]×100.
A general note: Scintillation proximity formats need no separation of bound from free tracer.

A further experiment relates to DSS induced colitis. In words: DSS-induced model of colitis, two DSS cycles (Example 12). Type of experiment: in vivo. As to conditions: female C57BI6 mice, Compound 231 60 mg/kg BID, filgotinib 30 mg/kg QD; for colon length: day 27. The method, then:
6-8 week old female C57BI6 mice were tagged and weighed, then treated with 2% dextran sulfate sodium (DSS) for 6 days. A 2 week recovery phase of regular water was completed over days 7-19. […] Mice were monitored daily and scored for body weight loss, stool consistency/diarrhea, and blood in the feces/rectum. The disease activity index was calculated according to Table 4. The second DSS cycle and treatment regimen continued for 7 days, and then on day 27 the animals were sacrificed. Colons were harvested and the texture, appearance and length of the colons assessed. Colon tissues were prepared for H&E histology, immune gene expression analysis, and immune phenotyping of immune cell infiltrate by flow cytometry. [table]

[2] abbreviates: read-out: Mean Luciferase EC50 (nM).
Where [3] appears, read: read-out: Mean Luciferase EC50 (nM), 786-O-Hif-Luc cells, about 24 hours.
The mark [4] stands for this setting: probe displacement from HIF-2α PAS-B domain, read-out: Scintillation Proximity Assay IC50.

Description for 786-O-Hif-Luc cells: A pool of infected cells were then selected against 2 g/mL of puromycin (P8833, Sigma) for 10 days followed by limited dilution to select single clones.
Each concentration was tested in triplicate. After about 24 hours, luciferase activity was determined using ONE-Glo Luciferase Assay Reagent (E6110, Promega) following the manufacturer's recommended procedure. EC50 were calculated using Dotmatics software.

For the compound `O=S(=O)(c1ccc(Oc2cc(F)cc(Cl)c2)c2c1[C@H](O)CC2)C(F)F` [Compound 1], in the experiment with 786-O cells, the EC50 (as a rule, the midpoint of the concentration-response curve) is 250 to 1000 nM.
For the compound `C[C@H]1C[C@@H](O)c2c(S(=O)(=O)C(F)F)ccc(Oc3cc(F)cc(Cl)c3)c21` [Compound 7a], the half-maximal effective concentration (EC50) in the experiment on 786-O-Hif-Luc cells (setting [2]) lay in the range of 250 to 1000 nM.
As for `O=S(=O)(c1ccc(Oc2cc(F)cc(Cl)c2)c2c1C(O)CC2)C(F)F` (stereo not shown) [Compound 17], the concentration giving a half-maximal response (EC50) in the experiment on 786-O cells lay within 50 to 249 nM.
Turning to `O=S(=O)(c1ccc(Oc2cc(F)cc(Cl)c2)c(Cl)c1CO)C(F)F` [Compound 41], the EC50 with 786-O-Hif-Luc cells (setting [2]) and in the experiment with 786-O cells was 250 to 1000 nM in each case.
As to `COCc1c(S(=O)(=O)C(F)F)ccc(Oc2cc(F)cc(Cl)c2)c1Cl` [Compound 44], the concentration for half-maximal inhibition (IC50) (commonly the concentration that gives 50% inhibition) in experiment [1] is > 1000 nM.
Regarding `N#Cc1cc(F)cc(Oc2ccc(S(=O)(=O)C(F)(F)F)c3c2CC[C@H]3O)c1` [Compound 57], the EC50 with 786-O-Hif-Luc cells (setting [2]) is 50 to 249 nM.
Take `N#Cc1ccc(Oc2cc(F)cc(F)c2)c2c1[C@H](O)C(F)(F)C2` [Compound 67]: the half-maximal effective concentration (EC50) with 786-O cells fell in the range of 50 to 249 nM.
The same measure, in the same setting: under `N#Cc1cc(F)cc(Oc2ccc(S(=O)(=O)C(F)F)c3c2CCC3O)c1` (stereo not shown) [Compound 78] stands 250 to 1000 nM.
Regarding `O=S(=O)(c1ccc(Oc2cc(F)cc(Cl)c2)c(C(F)F)c1)C(F)(F)F` [Compound 124], the 50% effective concentration (EC50) in the experiment on 786-O-Hif-Luc cells (setting [2]) and in the experiment on 786-O cells was 250 to 1000 nM in each case.
In the case of `N#Cc1cc(F)cc(Oc2ccc(S(=O)(=O)C(F)F)c3c2CC[C@H]3O)c1` [Compound 155], the EC50 in the experiment on 786-O-Hif-Luc cells (setting [2]) and in the experiment on 786-O cells was 50 to 249 nM throughout.
As to `N#Cc1cccc(Oc2ccc(S(=O)(=O)C(F)F)c3c2CC[C@H]3O)c1` [Compound 156], in the experiment on 786-O-Hif-Luc cells (setting [2]), the concentration giving a half-maximal response (EC50) was in the range of 250 to 1000 nM.
Still for that read-out and setting: for `CS(=O)(=O)c1ccc(Oc2cc(F)cc(C#N)c2)c2c1[C@H](O)C(F)(F)C2` [Compound 163, (S)-3-((2,2-difluoro-1-hydroxy-7-(methylsulfonyl)-2,3-dihydro-1H-inden-4-yl)oxy)-5-fluorobenzonitrile] the value was < 50 nM; for `CS(=O)(=O)c1ccc(Oc2cc(F)cc(C#N)c2)c2c1[C@H](N)C(F)(F)C2` [Compound 165], 50 to 249 nM; for `N#Cc1cc(Cl)cc(Oc2ccc(S(=O)(=O)CF)c3c2CC(F)(F)[C@H]3O)c1` [Compound 167], < 50 nM.
On to `CCS(=O)(=O)c1ccc(Oc2cc(F)cc(C#N)c2)c2c1[C@H](O)C(F)(F)C2` [Compound 206], for which the 50% effective concentration (EC50) in the experiment with 786-O-Hif-Luc cells (setting [2]) fell in the range of 50 to 249 nM.
Same read-out and setting: for `CS(=O)(=O)c1ccc(Oc2cc(F)cc(C#N)c2)c2c1C(O)C(F)(F)C2` (stereo not shown) [Compound 223] the value was 50 to 249 nM.
Consider `CS(=O)(=O)c1ccc(Oc2cc(F)cc(C#N)c2)c2c1[C@@H](O)C(F)(F)C2` [Compound 226], for which the EC50 with 786-O-Hif-Luc cells (setting [2]) was > 1000 nM.
In the case of `N#Cc1cc(F)cc(Oc2ccc(S(=O)(=O)C(F)(F)F)c3c2C[C@@H](F)[C@H]3O)c1` [Compound 227], the half-maximal effective concentration (EC50) in the experiment with 786-O-Hif-Luc cells (setting [3]) is < 50 nM.
For `[2H]C([2H])([2H])S(=O)(=O)c1ccc(Oc2cc(F)cc(C#N)c2)c2c1[C@]([2H])(O)C(F)(F)C2` [Compound 229], the EC50 in the experiment on 786-O-Hif-Luc cells (setting [2]) is < 50 nM.
Regarding `CS(=O)(=O)c1ccc(Oc2cc(F)cc(C#N)c2)c2c1[C@H](O)[C@H](F)C2` [Compound 231], the EC50 with 786-O-Hif-Luc cells (setting [2]) was < 50 nM. Besides, the colon length entry in the experiment with DSS induced colitis was “greatest improvement in colon length”.
In the case of `CS(=O)(=O)c1ccc(Oc2cc(F)cc(C#N)c2)c2c1C(O)C(F)C2` (stereo not shown) [Compound 232], the EC50 in the experiment on 786-O-Hif-Luc cells (setting [2]) is < 50 nM.
As for `CS(=O)(=O)c1ccc(Oc2cc(Cl)cc(C#N)c2)c2c1[C@H](O)C(F)(F)C2` [Compound 234], the EC50 was < 50 nM in the experiment on 786-O-Hif-Luc cells (setting [2]) and 50 to 249 nM in the experiment on 786-O cells.
As to `N#Cc1cncc(Oc2ccc(S(=O)(=O)C(F)(F)F)c3c2CC(F)(F)[C@H]3O)c1` [Compound 235], the concentration giving a half-maximal response (EC50) in the experiment on 786-O-Hif-Luc cells (setting [2]) is < 50 nM.
Turning to `O=S(=O)(c1ccc(OC2=CC=CN3CC=NC23)c2c1C(O)C(F)(F)C2)C(F)(F)F` (stereo not shown) [Compound 246], in experiment [1] (setting [4]), the IC50 was > 1000 nM.
With `[2H][C@]1(O)c2c(S(C)(=O)=O)ccc(Oc3cc(F)cc(C#N)c3)c2CC1(F)F` [Compound 247], the concentration giving a half-maximal response (EC50) in the experiment with 786-O-Hif-Luc cells (setting [2]) was < 50 nM.
Turning to `CNS(=O)(=O)c1ccc(Oc2cc(F)cc(F)c2)c2c1[C@H](O)C(F)(F)C2` [Compound 251], the EC50 in the experiment with 786-O-Hif-Luc cells (setting [2]) fell in the range of 50 to 249 nM.
Same read-out and setting: under `N#Cc1cc(F)cc(Oc2ccc(S(N)(=O)=O)c3c2CC(F)(F)[C@H]3O)c1` [Compound 252] stands 50 to 249 nM.
Still for that read-out and setting: for `CNS(=O)(=O)c1ccc(Oc2cc(F)cc(C#N)c2)c2c1[C@H](O)C(F)(F)C2` [Compound 254] the value was 50 to 249 nM; for `NS(=O)(=O)c1ccc(Oc2cc(F)cc(F)c2)c2c1[C@H](O)C(F)(F)C2` [Compound 256], < 50 nM.
The same measure, in the same setting: under `N#Cc1cc(F)cc(Oc2ccc(S(=O)(=O)C(F)(F)F)c3c2CCC3O)c1` (stereo not shown) [Compound 258] stands > 1000 nM; under `CS(=O)(=O)c1ccc(Oc2cc(F)cc(C#N)c2)c2c1[C@H](O)[C@@H](F)C2` [Compound 271], 250 to 1000 nM.
`O=S(=O)(c1ccc(Oc2cc(F)cc(Cl)c2)c2c1[C@H](O)C[C@@H]2CO)C(F)(F)F` [Compound 281]: in experiment [1] (setting [4]), the half-inhibitory concentration (IC50) lay within 250 to 1000 nM.
In the case of `CS(=O)(=O)c1ccc(Oc2cc(F)cc(C#N)c2)c2c1[C@H](O)[C@H](F)[C@@H]2F` [Compound 289, 3-[(1S,2S,3R)-2,3-difluoro-1-hydroxy-7-methylsulfonyl-indan-4-yl]oxy-5-fluoro-benzonitrile], the EC50 in the experiment with 786-O-Hif-Luc cells (setting [2]) is < 50 nM.
Regarding `N#Cc1cc(F)cc(Oc2ccc(S(=O)(=O)C(F)(F)F)c3c2CC(F)(F)[C@H]3N)c1` [Compound 290], the EC50 in the experiment with 786-O-Hif-Luc cells (setting [2]) lay in the range of 50 to 249 nM.
On to `N#Cc1cc(F)cc(Oc2ccc(S(N)(=O)=O)c3c2[C@@H](F)C(F)(F)[C@H]3O)c1` [Compound 338], for which, in the experiment on 786-O-Hif-Luc cells (setting [2]), the concentration giving a half-maximal response (EC50) is < 50 nM.
The same measure, in the same setting: for `N#Cc1cc(F)cc(Oc2ccc(S(N)(=O)=O)c3c2[C@H](F)C(F)(F)[C@H]3O)c1` [Compound 339] the value was 250 to 1000 nM.
`N#Cc1cc(F)cc(Oc2ccc3c(c2Br)C(N)C(F)(F)S3(=O)=O)c1` (stereo not shown) [Compound 376]: the EC50 in the experiment with 786-O-Hif-Luc cells (setting [3]) was > 1000 nM. Moreover, the IC50 in experiment [1] (setting [4]) was < 50 nM.
For `O=S1(=O)c2ccc(OC3CCOCC3)c(C(F)F)c2C(O)C1(F)F` (stereo not shown) [Compound 400], in that order: > 1000 nM and > 1000 nM.
For the compound `N#Cc1cc(F)cc(-c2cnc(C(F)(F)F)c3c2C[C@@H](F)[C@H]3O)c1` [Compound 471], the IC50 in experiment [1] (setting [4]) lay within 250 to 1000 nM.
As to `CCCNc1ccc(S(=O)(=O)C(F)F)c2c1CC(F)(F)[C@H]2O` [Compound 532], in the experiment with 786-O-Hif-Luc cells (setting [3]), the EC50 lay within 250 to 1000 nM. Further, in experiment [1] (setting [4]), the IC50 was < 50 nM.
`O=S(=O)(c1ccc(OC2CC(O)C2)c2c1[C@H](O)C(F)(F)C2)C(F)(F)F` (stereo partly shown) [Compound 644]: the 50% effective concentration (EC50) with 786-O-Hif-Luc cells (setting [3]) lay within 250 to 1000 nM.
Take `O=C1CCC(Oc2ccc(S(=O)(=O)C(F)(F)F)c3c2CC(F)(F)[C@H]3O)CN1` (stereo partly shown) [Compound 719]: the IC50 in experiment [1] (setting [4]) was > 1000 nM.
Regarding `CC(C)(C)OC(=O)NC1CC(Oc2ccc(S(=O)(=O)C(F)(F)F)c3c2CC(F)(F)[C@H]3O)C1` (stereo partly shown) [Compound 722], the concentration for a half-maximal effect (EC50) in the experiment on 786-O-Hif-Luc cells (setting [3]) is > 1000 nM.
With `O=S(=O)(c1ccc(OC2CCOCC2)c2c1[C@@H](O)C(F)(F)C2)C(F)F` [Compound 782], the EC50 in the experiment on 786-O-Hif-Luc cells (setting [3]) is 50 to 249 nM. Also, the IC50 in experiment [1] (setting [4]) was 50 to 249 nM.
Regarding `O=C(Nc1nc2cccc(-c3ccc(CN4CCS(=O)(=O)CC4)cc3)n2n1)C1CC1` [filgotinib], the colon length result in the experiment on DSS induced colitis is “This effect was reversed”. The “disease activity index score” value in the experiment with DSS induced colitis (second DSS cycle ([…] DSS, 7 days), vehicle group 6-7) is given as “slight decrease in the disease activity index, but only in the later stage of the disease progression”.

The values are drawn from US20210015764A1, “METHODS OF REDUCING INFLAMMATION OF THE DIGESTIVE SYSTEM WITH INHIBITORS OF HIF-2- ALPHA” (Peloton Therapeutics Inc., priority 2018, published 2021).
